Reference: PubChem BioAssay (NCI)
Several values for one entry are separate records, joined by “and”; a condition that tells them apart may be missing. Identical values can stand only once.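 Growth conditions: 96-well plates. Treatment: test compound, 48 hours, 5 concentrations. Analysis: linear interpolation between bracketing concentrations; unreached endpoints set to highest concentration. GI50 marks 50% less growth. TGI denotes the concentration required for complete inhibition of growth.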

Legend:
Test in all cases: growth of human tumour cells (NCI), 48 h
BT-549 breast = test system: BT-549 breast
HOP-62 NSCLC = test system: HOP-62 NSCLC
MALME-3M melanoma = test system: MALME-3M melanoma
MDA-MB-435 = test system: MDA-MB-435
NCI-H460 lung = test system: NCI-H460 lung
NCI/ADR-RES ovarian = test system: NCI/ADR-RES ovarian
OVCAR-3 ovarian = test system: OVCAR-3 ovarian
OVCAR-4 ovarian = test system: OVCAR-4 ovarian
K-562 leukemia = test system: K-562 leukemia
SR leukemia = test system: SR leukemia

| SMILES | GI50 (BT-549 breast) | TGI (BT-549 breast) | GI50 (HOP-62 NSCLC) | TGI (HOP-62 NSCLC) | GI50 (MALME-3M melanoma) | TGI (MALME-3M melanoma) | GI50 (MDA-MB-435) | TGI (MDA-MB-435) | GI50 (NCI-H460 lung) | TGI (NCI-H460 lung) | GI50 (NCI/ADR-RES ovarian) | TGI (NCI/ADR-RES ovarian) | GI50 (OVCAR-3 ovarian) | TGI (OVCAR-3 ovarian) | GI50 (OVCAR-4 ovarian) | TGI (OVCAR-4 ovarian) | GI50 (K-562 leukemia) | TGI (K-562 leukemia) | GI50 (SR leukemia) | TGI (SR leukemia) |
| --- | --- | --- | --- | --- | --- | --- | --- | --- | --- | --- | --- | --- | --- | --- | --- | --- | --- | --- | --- | --- |
| Cc1cccc2c(=O)c3c(sc12)c(NCCCNCCO)nc1ccccc13 | 1.85 µM | 4.27 µM | 1.22 µM | 2.75 µM | 1.81 µM | 3.5 µM | 1.74 µM | 3.18 µM | 1.15 µM | 2.55 µM | 1.73 µM | 3.26 µM | 1.74 µM | 3.26 µM | 1.8 µM | 3.44 µM |  |  |  |  |
| CN1CCN(C)C1c1ccc(C2N(C)CCN2C)cc1 |  |  | 82.8 µM | > 100 µM | > 100 µM | > 100 µM | 34.5 µM | > 100 µM | > 100 µM | > 100 µM | 90.1 µM | > 100 µM | 41.8 µM | > 100 µM | 38.3 µM | > 100 µM | 38.5 µM | > 100 µM | 28.5 µM | > 100 µM |
| COc1cccc(S(=O)(=O)NC2=NCCN2C(=S)SN2CCn3c2nsc3=S)c1 | 29.9 µM | 99.8 µM | 55.5 µM | > 100 µM |  |  | 37.3 µM | > 100 µM | 58.3 µM | > 100 µM | 52.4 µM | > 100 µM | 25.6 µM | 56.5 µM | 34.2 µM | > 100 µM | 31.4 µM | 92.3 µM | 18 µM | 51.3 µM |
| COc1ccc(Sc2[nH]c(C=O)c3ccccc23)cc1 | 2.03 µM | 12.1 µM | 15.5 µM | 29.7 µM | 14.2 µM | 38.8 µM | 2.68 µM | 11.5 µM | 2.94 µM | 11.2 µM | 11.6 µM | 47.5 µM | 11.9 µM | 24.2 µM | 22.4 µM | 61.7 µM | 2.14 µM | 14.2 µM |  |  |
| c1cc[c]([Ge]([O]c2cccc3cccnc23)([c]2ccccc2)[c]2ccccc2)cc1 |  |  | 12.7 µM | 25.6 µM | 10.4 µM | 22.4 µM |  |  | 3.37 µM | 12.2 µM |  |  | 2.55 µM | 6.82 µM | 3.11 µM | 13.1 µM |  |  |  |  |
| CC[C@]12CN3CCc4c([nH]c5ccccc45)[C@@](C(=O)OC)(c4cc5c(cc4OC)N(C)[C@H]4[C@@](O)(C(=O)OC)[C@H](OC(C)=O)[C@]6(CC)C=CCN7CC[C@]54[C@@H]76)CC(C3)[C@H]1O2 (stereo partly specified) | 0.343 µM |  | 0.121 µM | 26.9 µM | 0.0639 µM | > 50 µM | 0.0161 µM | 0.0252 µM and 0.0878 µM | 0.167 µM | 10.9 µM and > 27.4 µM | 11.6 µM | > 100 µM | 0.0445 µM |  | 0.327 µM | > 100 µM | 0.0499 µM | > 50 µM |  |  |
| COc1ccc2c(n1)Sc1nc3ccccc3nc1N2 |  | > 100 µM |  | 79.5 µM |  | > 100 µM |  | > 100 µM |  | > 100 µM |  | > 100 µM |  | > 100 µM |  | > 100 µM |  | > 100 µM |  |  |
| COc1ccc2cc3c4cc(OC)c(OC)cc4ccn3c2c1 |  |  |  | > 100 µM |  | > 100 µM |  |  |  | > 100 µM |  |  |  |  |  | > 100 µM |  | > 100 µM |  | > 100 µM |
